For 24 compounds, IC50 results are on record in patent publication US12011444B2, “N-substituted indole derivatives as PGE2 receptor modulators” (Idorsia Pharmaceuticals Ltd, priority 2015, dated 2024).

The target in test [1] is PTRGER4 (EP4) (Homo sapiens (Human), UniProt P35408). In words: hEP4 b-arrestin assay (PathHunter HEK 293 PTGER4 b-arrestin cells). It is filed as cell-based. The settings on record: antagonistic activity on hEP4; mean where measured multiple times. Summed up: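 Antagonist mode: compound is given 15 min at 37 °C, then 20 nM (final) PGE2 for 120 min, in HEK293 cells stably expressing EP4 fused to ProLink and β-arrestin 2 fused to EA. Recruitment read as β-gal luminescence after 1 h reagent at room temperature, as percent of DMSO control.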

For test [2], the target named is PTGER2 (EP2) (Homo sapiens (Human), UniProt P43116). Nature of the test: hEP2 b-arrestin assay (PathHunter HEK 293 PTGER2 b-arrestin cells). In kind it is cell-based. The settings on record: antagonistic activity on hEP2; mean where measured multiple times. Summed up:
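Readout is β-galactosidase complementation luminescence, expressed as percent of DMSO control (duplicates). PathHunter HEK293 EP2/β-arrestin 2 cells, grown 24 h, received compound for 15 min at 37 °C before a 120 min challenge with PGE2 at 5 μM final, followed by 1 h detection at room temperature.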

Sequence of PTGER2 (EP2) (P43116 whole entry): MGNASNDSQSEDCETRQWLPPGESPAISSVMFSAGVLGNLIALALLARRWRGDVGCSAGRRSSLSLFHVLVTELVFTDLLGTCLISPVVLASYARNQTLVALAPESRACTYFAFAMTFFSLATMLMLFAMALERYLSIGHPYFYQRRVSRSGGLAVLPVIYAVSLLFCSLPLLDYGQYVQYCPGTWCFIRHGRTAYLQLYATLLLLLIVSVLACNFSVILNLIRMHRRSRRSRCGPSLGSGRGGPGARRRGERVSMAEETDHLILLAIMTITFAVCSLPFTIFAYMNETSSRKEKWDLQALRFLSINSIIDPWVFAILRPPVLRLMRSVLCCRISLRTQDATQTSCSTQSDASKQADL
Sequence of PTRGER4 (EP4) (P35408 whole entry, looked up, the tested form may be a part): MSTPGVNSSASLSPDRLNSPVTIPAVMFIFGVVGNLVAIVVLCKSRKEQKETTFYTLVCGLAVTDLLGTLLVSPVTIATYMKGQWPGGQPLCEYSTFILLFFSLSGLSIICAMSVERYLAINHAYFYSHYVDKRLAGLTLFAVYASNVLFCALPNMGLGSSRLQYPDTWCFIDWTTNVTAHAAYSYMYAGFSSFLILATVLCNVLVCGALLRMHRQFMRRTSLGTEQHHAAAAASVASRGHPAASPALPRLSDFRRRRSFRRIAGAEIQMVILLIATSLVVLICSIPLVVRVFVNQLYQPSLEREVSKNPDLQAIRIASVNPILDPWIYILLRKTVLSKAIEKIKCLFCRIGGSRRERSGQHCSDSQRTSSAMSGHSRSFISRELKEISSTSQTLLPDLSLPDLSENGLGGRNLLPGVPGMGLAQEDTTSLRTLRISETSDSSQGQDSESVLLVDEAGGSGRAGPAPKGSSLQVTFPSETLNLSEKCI

What is called IC50 is the midpoint of a concentration-inhibition curve. Low values mean greater potency, high ones weaker potency. As for `COc1cc(-c2cc(NCCn3c(C)cc4c(OC)ccc(F)c43)ncn2)ccc1CO` [compound 130, (4-{6-[2-(7-Fluoro-4-methoxy-2-methyl-indol-1-yl)-ethylamino]-pyrimidin-4-yl}-2-methoxy-phenyl)-methanol], the results for the IC50 in test [1] and in test [2] were 78 nM and 4 nM, respectively.

`COc1cccc2c1cc(C)n2CCNc1cc(-c2cc(C)c(C(=O)O)c(Cl)c2)ncn1` [compound 131, 2-Chloro-4-{6-[2-(4-methoxy-2-methyl-indol-1-yl)-ethylamino]-pyrimidin-4-yl}-6-methyl-benzoic acid]: the IC50 in test [1] was found to be 402 nM; in test [2] it was 23 nM.

With `COc1ccc(F)c2c1cc(C)n2CCNc1cc(-c2ccc(NC(N)=O)cc2)ncn1` [compound 132, (4-{6-[2-(7-Fluoro-4-methoxy-2-methyl-indol-1-yl)-ethylamino]-pyrimidin-4-yl}-phenyl)-urea], the values for the IC50 in test [1] and in test [2] were 277 nM and 43 nM, respectively.

`Cc1cc2ccccc2n1CCNc1cc(-c2ccc3ccncc3c2)ncn1` [compound 133]: the values for the IC50 in test [1] and in test [2] were 990 nM and 29 nM, respectively.

As to `CNc1cc(-c2cc(NCCn3c(C)cc4c(F)ccc(F)c43)ncn2)ccc1C(=O)O` [compound 134, 4-{6-[2-(4,7-Difluoro-2-methyl-indol-1-yl)-ethylamino]-pyrimidin-4-yl}-2-methylamino-benzoic acid], the IC50 in test [1] is 174 nM; in test [2], 1 nM.

Turning to `Cc1cc(-c2cc(NCCn3c(C)cc4c(C)ccc(F)c43)ncn2)ccc1S(N)(=O)=O` [compound 135], the figures for the IC50 in test [1] and in test [2] were 288 nM and 96 nM, respectively.

On to `CNc1cc(-c2cc(NCCn3c(C)cc4c(C)ccc(F)c43)ncn2)ccc1C(=O)O` [compound 136, 4-{6-[2-(7-Fluoro-2,4-dimethyl-indol-1-yl)-ethylamino]-pyrimidin-4-yl}-2-methylamino-benzoic acid], for which the IC50 in test [1] worked out at 48 nM; in test [2], 5 nM.

For the compound `CCNc1cc(-c2cc(NCCn3c(C)cc4cccc(Cl)c43)ncn2)ccc1C(=O)O` [compound 137, 4-{6-[2-(7-Chloro-2-methyl-indol-1-yl)-ethylamino]-pyrimidin-4-yl}-2-ethylamino-benzoic acid], the IC50 worked out at 897 nM in test [1] and 2 nM in test [2].

Turning to `CCOc1cc(-c2cc(NCCn3c(C#N)cc4ccccc43)ncn2)ccc1C(=O)O` [compound 138, 4-{6-[2-(2-Cyano-indol-1-yl)-ethylamino]-pyrimidin-4-yl}-2-ethoxy-benzoic acid], the IC50 in test [1] is 567 nM; in test [2], 7 nM.

Regarding `COc1cccc2c1cc(C)n2CCNc1cc(-c2ccc(S(N)(=O)=O)c(C)c2)ncn1` [compound 139, 4-{6-[2-(4-Methoxy-2-methyl-indol-1-yl)-ethylamino]-pyrimidin-4-yl}-2-methyl-benzenesulfonamide], the IC50 was 939 nM in test [1] and 28 nM in test [2].

For `Cc1cccc2c1cc(C)n2CCNc1cc(-c2ccc(C(=O)O)c(CC(C)C)c2)ncn1` [compound 140, 4-{6-[2-(2,4-Dimethyl-indol-1-yl)-ethylamino]-pyrimidin-4-yl}-2-isobutyl-benzoic acid], the IC50 in test [1] was 476 nM; in test [2], 11 nM.

On to `CSc1cc(-c2cc(NCCn3c(C)cc4c(Cl)ccc(Cl)c43)ncn2)cc(F)c1C(=O)O` [compound 141, 4-{6-[2-(4,7-Dichloro-2-methyl-indol-1-yl)-ethylamino]-pyrimidin-4-yl}-2-fluoro-6-methylsulfanyl-benzoic acid], for which the figures for the IC50 in test [1] and in test [2] were 992 nM and 20 nM, respectively.

As to `CSc1cc(-c2cc(NCCn3c(C)cc4c(Cl)ccc(Cl)c43)ncn2)cc(Cl)c1C(=O)O` [compound 142, 2-Chloro-4-{6-[2-(4,7-dichloro-2-methyl-indol-1-yl)-ethylamino]-pyrimidin-4-yl}-6-methylsulfanyl-benzoic acid], the IC50 was 588 nM in test [1] and 16 nM in test [2].

Turning to `CCCc1cc(-c2cc(NCCn3c(C)cc4c(F)ccc(Cl)c43)ncn2)ccc1C(=O)O` [compound 143, 4-{6-[2-(7-Chloro-4-fluoro-2-methyl-indol-1-yl)-ethylamino]-pyrimidin-4-yl}-2-propyl-benzoic acid], the IC50 in test [1] came out at 658 nM; in test [2], 5 nM.

Consider `CCCc1cc(-c2cc(NCCn3c(C)cc4c(F)ccc(F)c43)ncn2)ccc1C(=O)O` [compound 144, 4-{6-[2-(4,7-Difluoro-2-methyl-indol-1-yl)-ethylamino]-pyrimidin-4-yl}-2-propyl-benzoic acid], for which the IC50 in test [1] amounted to 658 nM; in test [2] it was 3 nM.

`CCCc1cc(-c2cc(NCCn3c(C)cc4cc(F)cc(F)c43)ncn2)ccc1C(=O)O` [compound 145, 4-{6-[2-(5,7-Difluoro-2-methyl-indol-1-yl)-ethylamino]-pyrimidin-4-yl}-2-propyl-benzoic acid]: the IC50 in test [1] was determined as 302 nM; in test [2], 8 nM.

Turning to `CCSc1cc(-c2cc(NCCn3c(C)cc4c(C)ccc(Cl)c43)ncn2)ccc1C(=O)O` [compound 146, 4-{6-[2-(7-Chloro-2,4-dimethyl-indol-1-yl)-ethylamino]-pyrimidin-4-yl}-2-ethylsulfanyl-benzoic acid], the results for the IC50 in test [1] and in test [2] were 334 nM and 8 nM, respectively.

`CCCc1cc(-c2cc(NCCn3c(C)cc4c(C)ccc(F)c43)ncn2)ccc1C(=O)O` [compound 147, 4-{6-[2-(7-Fluoro-2,4-dimethyl-indol-1-yl)-ethylamino]-pyrimidin-4-yl}-2-propyl-benzoic acid]: the IC50 in test [1] came out at 109 nM; in test [2], 16 nM.

In the case of `Cc1cc2cccc(F)c2n1CCNc1cc(-c2ccc(C(=O)O)c(CC(C)C)c2)ncn1` [compound 148, 4-{6-[2-(7-Fluoro-2-methyl-indol-1-yl)-ethylamino]-pyrimidin-4-yl}-2-isobutyl-benzoic acid], the values for the IC50 in test [1] and in test [2] were 943 nM and 7 nM, respectively.

On to `CCSc1cc(-c2cc(NCCn3c(C)cc4c(Cl)ccc(Cl)c43)ncn2)ccc1C(=O)O` [compound 149, 4-{6-[2-(4,7-Dichloro-2-methyl-indol-1-yl)-ethylamino]-pyrimidin-4-yl}-2-ethylsulfanyl-benzoic acid], for which the IC50 in test [1] turned out to be 605 nM; in test [2], 10 nM.

Take `CSc1cc(-c2cc(NCCn3c(C)cc4c(C)ccc(Cl)c43)ncn2)cc(Cl)c1C(=O)O` [compound 150]: the IC50 in test [1] stood at 458 nM; in test [2] it was 54 nM.

Turning to `CCOc1cc(-c2cc(NCCn3c(C)cc4c(Cl)ccc(Cl)c43)ncn2)ccc1C(=O)O` [compound 151, 4-{6-[2-(4,7-Dichloro-2-methyl-indol-1-yl)-ethylamino]-pyrimidin-4-yl}-2-ethoxy-benzoic acid], the IC50 is 808 nM in test [1] and 8 nM in test [2].

For `CCOc1cc(-c2cc(NCCn3c(C)cc4c(F)ccc(Cl)c43)ncn2)ccc1C(=O)O` [compound 152, 4-{6-[2-(7-Chloro-4-fluoro-2-methyl-indol-1-yl)-ethylamino]-pyrimidin-4-yl}-2-ethoxy-benzoic acid], the IC50 came out at 786 nM in test [1] and 3 nM in test [2].

`CCOc1cc(-c2cc(NCCn3c(C)cc4cc(Cl)cc(Cl)c43)ncn2)ccc1C(=O)O` [compound 153]: the IC50 in test [1] was 739 nM; in test [2] it was 202 nM.
